Results: patent US20030060397A1, “Method of treating and preventing acute neural lesions with substances that modulate the expression or function of a protein involved in the cell cycle and pharmaceutical preparations containing such substances” (priority 2000, published 2003)

Columns and labels:
hippocampus cells = assay: Kainate-dependent neuronal death in primary hippocampus cell cultures (propidium iodine); type: cell-based, Wistar rats; conditions: kainate 20 μM
Description: Neuronal death was analyzed by phase contrast microscopy and the use of two death markers: propidium iodine and Hoechst dye (Bisbenzimide).
Counting was performed on hippocampus cultures exposed to 20 μM of kainate. At least two dishes per condition were evaluated.

cyclin D1 = assay: Western blot of cyclin D1 expression after exposure to kainate, normalized by class III β-tubulin; type: cell-based, Wistar rats; conditions: kainate 75 μM, 100% before kainate
Description: After exposure of the hippocampus cells to kainate, the cells were washed in PBS then lysed in a Laemli buffer. The samples were subjected to sonication and heated at 100° C. for 5 minutes. Electrophoresis with a 12% SDS-polyacrylamide gel was then performed. The proteins were then transferred onto a nitrocellulose membrane and incubated with an anti-cyclin D1 monoclonal antibody or with an anti-CDK5 polyclonal antibody (Santa Cruz, Calif., USA) or with a class III anti-β-tubulin monoclonal antibody (Sigma, St. Louis, USA), a specific neuronal marker. Labeling was performed using the anti-rabbit antibody or anti-mouse antibody coupled to horseradish peroxidase using the ECLTM kit (Amersham Corp., England). The control experiments were performed by omitting the first antibodies.

[1] = system: excitotoxic neuronal death induced by kainate; conditions: inhibitors of caspases; cited from earlier work
[2] = 5 hours, in the absence of inhibitor

C=C(C)[C@H]1CN[C@H](C(=O)O)[C@H]1CC(=O)O [kainate]
augmentation of neuronal death in relation to the cultures without kainate (hippocampus cells; [2]): 150%
neuronal death (hippocampus cells; [2]): ~65%
time of mortality peak (hippocampus cells; propidium iodine): 5 h
normalized level of expression of cyclin D1 (percentage of the control) (cyclin D1): more than 150%

DEVD-CHO
prevention of excitotoxic neuronal death induced by kainate [1]: can not be prevented

YVAD-CHO
prevention of excitotoxic neuronal death induced by kainate [1]: can not be prevented
